Reference: the supplement of paper PMC8671470
Counter-ions that a name gives are not always drawn.

Each compound was assayed on myeloid leukemia patient primary cells Pat.10 (assay: area under dose-response curve (viability, 1 nM-10 uM) (fraction (0-1)); higher = more sensitive). Settings: 72 h.
Description: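 AUC (0–1, higher = more sensitive) of the 5-point dose–response (1 nM–10 µM, 72 h, CellTiter-Glo) in primary AML/CML patient mononuclear cells. 0.030103 is the floor for inactive compounds.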

First: Fc1ccc(CNc2ncnc3ccc(F)cc23)cc1 [Spautin 1]
Second: O=C(Oc1cccc(F)c1OC(=O)c1cccc(O)c1)c1cccc(O)c1 [WZB117]
The “area under dose-response curve” value of the first is lower: 0.0351 for the first, 0.176 for the second.

For `CC(C)(Cc1ccccc1)NCC(O)c1ccc(O)c(NS(C)(=O)=O)c1` (stereo not given) [Zinterol hydrochloride], the “area under dose-response curve” value was less than 0.0301.

The compounds below were run on MV4-11 (assay: cell viability (% survival relative to DMSO control); higher = less cytotoxic). Settings: drug1 concentration 5 nM; drug2 concentration 1 nM; 72 h.
Description: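 8x8 drug-combination matrices (0–5000 nM; rosiglitazone and lestaurtinib 0–1000 nM) were run in MV4-11 cells for 72 h with CellTiter-Glo read-out. Survival is normalised to DMSO and 10 µM bortezomib and clipped at 100%.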

Compound `Oc1ncc(F)c(O)n1` [5-fluorouracil] + C[C@]12O[C@H](C[C@]1(O)CO)n1c3ccccc3c3c4c(c5c6ccccc6n2c5c31)CNC4=O [Lestaurtinib] has a cell viability of 88.4%.

Same assay, conditions: drug1 concentration 5 nM; drug2 concentration 5 nM; 72 h

First: CN(C)C(=O)n1nnnc1Cc1ccc(-c2ccccc2)cc1 + CCOC(=O)N1c2ccc(C(F)(F)F)cc2[C@@H](N(Cc2cc(C(F)(F)F)cc(C(F)(F)F)c2)C(=O)OC)C[C@H]1CC [Torcetrapib]
Second: CN(C)CCNC(=O)c1cccn2c(=O)c3cc4ccccc4cc3nc12 [Bmh-21] + O=C(O)CC[N+](=O)[O-] [3-nitropropionic acid]
The cell viability of the first is higher: greater than 100% for the first, 92.2% for the second.

`Oc1ncc(F)c(O)n1` [5-fluorouracil] + C[C@]12O[C@H](C[C@]1(O)CO)n1c3ccccc3c3c4c(c5c6ccccc6n2c5c31)CNC4=O [Lestaurtinib] gave a cell viability of 70.5%.

Same assay, conditions: drug1 concentration 5 nM; drug2 concentration 10 nM; 72 h

Compared with `CN(C)C(=O)n1nnnc1Cc1ccc(-c2ccccc2)cc1` + CCOC(=O)N1c2ccc(C(F)(F)F)cc2[C@@H](N(Cc2cc(C(F)(F)F)cc(C(F)(F)F)c2)C(=O)OC)C[C@H]1CC [Torcetrapib], `CN(C)CCNC(=O)c1cccn2c(=O)c3cc4ccccc4cc3nc12` [Bmh-21] + O=C(O)CC[N+](=O)[O-] [3-nitropropionic acid] is higher in cell viability: 94.9% for the first, greater than 100% for the second.

With `Oc1ncc(F)c(O)n1` [5-fluorouracil] + C[C@]12O[C@H](C[C@]1(O)CO)n1c3ccccc3c3c4c(c5c6ccccc6n2c5c31)CNC4=O [Lestaurtinib] the cell viability was 26.4%.

Same assay, conditions: drug1 concentration 5 nM; drug2 concentration 50 nM; 72 h

First: CN(C)C(=O)n1nnnc1Cc1ccc(-c2ccccc2)cc1 + CCOC(=O)N1c2ccc(C(F)(F)F)cc2[C@@H](N(Cc2cc(C(F)(F)F)cc(C(F)(F)F)c2)C(=O)OC)C[C@H]1CC [Torcetrapib]
Second: CN(C)CCNC(=O)c1cccn2c(=O)c3cc4ccccc4cc3nc12 [Bmh-21] + O=C(O)CC[N+](=O)[O-] [3-nitropropionic acid]
The cell viability of the first is higher: greater than 100% for the first, 91.9% for the second.

`Oc1ncc(F)c(O)n1` [5-fluorouracil] + C[C@]12O[C@H](C[C@]1(O)CO)n1c3ccccc3c3c4c(c5c6ccccc6n2c5c31)CNC4=O [Lestaurtinib] was tested, and the cell viability was 2.49%.

Same assay, conditions: drug1 concentration 5 nM; drug2 concentration 100 nM; 72 h

Going from `CN(C)C(=O)n1nnnc1Cc1ccc(-c2ccccc2)cc1` + CCOC(=O)N1c2ccc(C(F)(F)F)cc2[C@@H](N(Cc2cc(C(F)(F)F)cc(C(F)(F)F)c2)C(=O)OC)C[C@H]1CC [Torcetrapib] to `CN(C)CCNC(=O)c1cccn2c(=O)c3cc4ccccc4cc3nc12` [Bmh-21] + O=C(O)CC[N+](=O)[O-] [3-nitropropionic acid], the cell viability falls from greater than 100% to 81.9%.

Work on `Oc1ncc(F)c(O)n1` [5-fluorouracil] + C[C@]12O[C@H](C[C@]1(O)CO)n1c3ccccc3c3c4c(c5c6ccccc6n2c5c31)CNC4=O [Lestaurtinib] yielded a cell viability of 3.32%.

Same assay, conditions: drug1 concentration 5 nM; drug2 concentration 500 nM; 72 h

`CN(C)C(=O)n1nnnc1Cc1ccc(-c2ccccc2)cc1` + CCOC(=O)N1c2ccc(C(F)(F)F)cc2[C@@H](N(Cc2cc(C(F)(F)F)cc(C(F)(F)F)c2)C(=O)OC)C[C@H]1CC [Torcetrapib] and `CN(C)CCNC(=O)c1cccn2c(=O)c3cc4ccccc4cc3nc12` [Bmh-21] + O=C(O)CC[N+](=O)[O-] [3-nitropropionic acid] cannot be ordered by cell viability: greater than 100% for the first, greater than 100% for the second.

`Oc1ncc(F)c(O)n1` [5-fluorouracil] + C[C@]12O[C@H](C[C@]1(O)CO)n1c3ccccc3c3c4c(c5c6ccccc6n2c5c31)CNC4=O [Lestaurtinib] showed a cell viability of 0.17%.

Same assay, conditions: drug1 concentration 5 nM; drug2 concentration 1000 nM; 72 h

First: CN(C)C(=O)n1nnnc1Cc1ccc(-c2ccccc2)cc1 + CCOC(=O)N1c2ccc(C(F)(F)F)cc2[C@@H](N(Cc2cc(C(F)(F)F)cc(C(F)(F)F)c2)C(=O)OC)C[C@H]1CC [Torcetrapib]
Second: CN(C)CCNC(=O)c1cccn2c(=O)c3cc4ccccc4cc3nc12 [Bmh-21] + O=C(O)CC[N+](=O)[O-] [3-nitropropionic acid]
The cell viability of the first is higher: 98% for the first, 90.9% for the second.

`Oc1ncc(F)c(O)n1` [5-fluorouracil] + C[C@]12O[C@H](C[C@]1(O)CO)n1c3ccccc3c3c4c(c5c6ccccc6n2c5c31)CNC4=O [Lestaurtinib] was tested, and the cell viability was -1.49%.

Same assay, conditions: drug1 concentration 5 nM; drug2 concentration 5000 nM; 72 h

Compared with `CN(C)C(=O)n1nnnc1Cc1ccc(-c2ccccc2)cc1` + CCOC(=O)N1c2ccc(C(F)(F)F)cc2[C@@H](N(Cc2cc(C(F)(F)F)cc(C(F)(F)F)c2)C(=O)OC)C[C@H]1CC [Torcetrapib], `CN(C)CCNC(=O)c1cccn2c(=O)c3cc4ccccc4cc3nc12` [Bmh-21] + O=C(O)CC[N+](=O)[O-] [3-nitropropionic acid] is higher in cell viability: 98.2% for the first, greater than 100% for the second.

Same assay, conditions: drug1 concentration 10 nM; drug2 concentration 1 nM; 72 h

Work on `Oc1ncc(F)c(O)n1` [5-fluorouracil] + C[C@]12O[C@H](C[C@]1(O)CO)n1c3ccccc3c3c4c(c5c6ccccc6n2c5c31)CNC4=O [Lestaurtinib] yielded a cell viability greater than 100%.

Same assay, conditions: drug1 concentration 10 nM; drug2 concentration 5 nM; 72 h

Going from `CN(C)C(=O)n1nnnc1Cc1ccc(-c2ccccc2)cc1` + CCOC(=O)N1c2ccc(C(F)(F)F)cc2[C@@H](N(Cc2cc(C(F)(F)F)cc(C(F)(F)F)c2)C(=O)OC)C[C@H]1CC [Torcetrapib] to `CN(C)CCNC(=O)c1cccn2c(=O)c3cc4ccccc4cc3nc12` [Bmh-21] + O=C(O)CC[N+](=O)[O-] [3-nitropropionic acid], the cell viability rises from 95% to greater than 100%.

With `Oc1ncc(F)c(O)n1` [5-fluorouracil] + C[C@]12O[C@H](C[C@]1(O)CO)n1c3ccccc3c3c4c(c5c6ccccc6n2c5c31)CNC4=O [Lestaurtinib] the cell viability was 43%.

Same assay, conditions: drug1 concentration 10 nM; drug2 concentration 10 nM; 72 h

First: CN(C)C(=O)n1nnnc1Cc1ccc(-c2ccccc2)cc1 + CCOC(=O)N1c2ccc(C(F)(F)F)cc2[C@@H](N(Cc2cc(C(F)(F)F)cc(C(F)(F)F)c2)C(=O)OC)C[C@H]1CC [Torcetrapib]
Second: CN(C)CCNC(=O)c1cccn2c(=O)c3cc4ccccc4cc3nc12 [Bmh-21] + O=C(O)CC[N+](=O)[O-] [3-nitropropionic acid]
The cell viability of the first is lower: 96% for the first, greater than 100% for the second.

For `Oc1ncc(F)c(O)n1` [5-fluorouracil] + C[C@]12O[C@H](C[C@]1(O)CO)n1c3ccccc3c3c4c(c5c6ccccc6n2c5c31)CNC4=O [Lestaurtinib], the cell viability was 23.6%.

Same assay, conditions: drug1 concentration 10 nM; drug2 concentration 50 nM; 72 h

Going from `CN(C)C(=O)n1nnnc1Cc1ccc(-c2ccccc2)cc1` + CCOC(=O)N1c2ccc(C(F)(F)F)cc2[C@@H](N(Cc2cc(C(F)(F)F)cc(C(F)(F)F)c2)C(=O)OC)C[C@H]1CC [Torcetrapib] to `CN(C)CCNC(=O)c1cccn2c(=O)c3cc4ccccc4cc3nc12` [Bmh-21] + O=C(O)CC[N+](=O)[O-] [3-nitropropionic acid], the cell viability falls from greater than 100% to 88.3%.

`Oc1ncc(F)c(O)n1` [5-fluorouracil] + C[C@]12O[C@H](C[C@]1(O)CO)n1c3ccccc3c3c4c(c5c6ccccc6n2c5c31)CNC4=O [Lestaurtinib] showed a cell viability of 4.72%.

Same assay, conditions: drug1 concentration 10 nM; drug2 concentration 100 nM; 72 h

`CN(C)C(=O)n1nnnc1Cc1ccc(-c2ccccc2)cc1` + CCOC(=O)N1c2ccc(C(F)(F)F)cc2[C@@H](N(Cc2cc(C(F)(F)F)cc(C(F)(F)F)c2)C(=O)OC)C[C@H]1CC [Torcetrapib] and `CN(C)CCNC(=O)c1cccn2c(=O)c3cc4ccccc4cc3nc12` [Bmh-21] + O=C(O)CC[N+](=O)[O-] [3-nitropropionic acid] cannot be ordered by cell viability: greater than 100% for the first, greater than 100% for the second.

`Oc1ncc(F)c(O)n1` [5-fluorouracil] + C[C@]12O[C@H](C[C@]1(O)CO)n1c3ccccc3c3c4c(c5c6ccccc6n2c5c31)CNC4=O [Lestaurtinib] showed a cell viability of 0.99%.

Same assay, conditions: drug1 concentration 10 nM; drug2 concentration 500 nM; 72 h

Compared with `CN(C)C(=O)n1nnnc1Cc1ccc(-c2ccccc2)cc1` + CCOC(=O)N1c2ccc(C(F)(F)F)cc2[C@@H](N(Cc2cc(C(F)(F)F)cc(C(F)(F)F)c2)C(=O)OC)C[C@H]1CC [Torcetrapib], `CN(C)CCNC(=O)c1cccn2c(=O)c3cc4ccccc4cc3nc12` [Bmh-21] + O=C(O)CC[N+](=O)[O-] [3-nitropropionic acid] is lower in cell viability: greater than 100% for the first, 99.8% for the second.

With `Oc1ncc(F)c(O)n1` [5-fluorouracil] + C[C@]12O[C@H](C[C@]1(O)CO)n1c3ccccc3c3c4c(c5c6ccccc6n2c5c31)CNC4=O [Lestaurtinib] the cell viability was -0.1%.

Same assay, conditions: drug1 concentration 10 nM; drug2 concentration 1000 nM; 72 h

Going from `CN(C)C(=O)n1nnnc1Cc1ccc(-c2ccccc2)cc1` + CCOC(=O)N1c2ccc(C(F)(F)F)cc2[C@@H](N(Cc2cc(C(F)(F)F)cc(C(F)(F)F)c2)C(=O)OC)C[C@H]1CC [Torcetrapib] to `CN(C)CCNC(=O)c1cccn2c(=O)c3cc4ccccc4cc3nc12` [Bmh-21] + O=C(O)CC[N+](=O)[O-] [3-nitropropionic acid], the cell viability falls from 99.8% to 89.5%.

`Oc1ncc(F)c(O)n1` [5-fluorouracil] + C[C@]12O[C@H](C[C@]1(O)CO)n1c3ccccc3c3c4c(c5c6ccccc6n2c5c31)CNC4=O [Lestaurtinib] gave a cell viability of -0.48%.

Same assay, conditions: drug1 concentration 10 nM; drug2 concentration 5000 nM; 72 h

Going from `CN(C)C(=O)n1nnnc1Cc1ccc(-c2ccccc2)cc1` + CCOC(=O)N1c2ccc(C(F)(F)F)cc2[C@@H](N(Cc2cc(C(F)(F)F)cc(C(F)(F)F)c2)C(=O)OC)C[C@H]1CC [Torcetrapib] to `CN(C)CCNC(=O)c1cccn2c(=O)c3cc4ccccc4cc3nc12` [Bmh-21] + O=C(O)CC[N+](=O)[O-] [3-nitropropionic acid], the cell viability falls from greater than 100% to 77.9%.

Same assay, conditions: drug1 concentration 50 nM; drug2 concentration 1 nM; 72 h

For `Oc1ncc(F)c(O)n1` [5-fluorouracil] + C[C@]12O[C@H](C[C@]1(O)CO)n1c3ccccc3c3c4c(c5c6ccccc6n2c5c31)CNC4=O [Lestaurtinib], the cell viability was greater than 100%.

Same assay, conditions: drug1 concentration 50 nM; drug2 concentration 5 nM; 72 h

Compared with `CN(C)C(=O)n1nnnc1Cc1ccc(-c2ccccc2)cc1` + CCOC(=O)N1c2ccc(C(F)(F)F)cc2[C@@H](N(Cc2cc(C(F)(F)F)cc(C(F)(F)F)c2)C(=O)OC)C[C@H]1CC [Torcetrapib], `CN(C)CCNC(=O)c1cccn2c(=O)c3cc4ccccc4cc3nc12` [Bmh-21] + O=C(O)CC[N+](=O)[O-] [3-nitropropionic acid] is lower in cell viability: greater than 100% for the first, 96.9% for the second.

Compound `Oc1ncc(F)c(O)n1` [5-fluorouracil] + C[C@]12O[C@H](C[C@]1(O)CO)n1c3ccccc3c3c4c(c5c6ccccc6n2c5c31)CNC4=O [Lestaurtinib] has a cell viability of 50.6%.

Same assay, conditions: drug1 concentration 50 nM; drug2 concentration 10 nM; 72 h

`CN(C)C(=O)n1nnnc1Cc1ccc(-c2ccccc2)cc1` + CCOC(=O)N1c2ccc(C(F)(F)F)cc2[C@@H](N(Cc2cc(C(F)(F)F)cc(C(F)(F)F)c2)C(=O)OC)C[C@H]1CC [Torcetrapib] was tested, and the cell viability was greater than 100%.
